{
  "source": "patent US20230203043A1",
  "about": "“NOVEL IMIDAZOPYRAZINE DERIVATIVES” (Hoffmann-La Roche Inc., priority 2020, published 2023)",
  "note": "Counter-ions that a name gives are not always drawn.",
  "data": [
    {"system": "Acinetobacter baumannii ATCC17961", "experiment": "Antimicrobial susceptibility testing: 90% growth inhibitory concentration (IC90) determination in Iso-Sensitest broth, OD600 growth", "format": "cell-based", "settings": "Acinetobacter baumannii, ATCC17961, 16 h, read-out: A. baumannii ATCC 17961 IC90 (uM), strain ATCC 17961, OD600 growth over 16 h", "how_it_was_run": "(§1)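 Growth monitored at 600 nm every 20 min for 16 h at 35±2 °C, inoculum ~5×10^(5) CFU/ml in Iso-Sensitest medium. Compounds in 10-point twofold series, e.g. 50 to 0.097 μM final; 90% inhibitory concentration taken from log-phase growth.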", "units": {"IC90": "µM"}, "values": [
      {"smiles": "COCCn1cc(-c2cnc3c(Nc4ccc(C(=O)N5CCN(C(=O)N[C@@H]6CCNC6)CC5)c(Cl)c4)nccn23)c(C(F)(F)F)n1", "note": "[Example 296, 4-[2-chloro-4-[[3-[1-(2-methoxyethyl)-3-(trifluoromethyl)pyrazol-4-yl]imidazo[1,2-a]pyrazin-8-yl]amino]benzoyl]-N-[(3R)-pyrrolidin-3-yl]piperazine-1-carboxamide formate]", "IC90": 0.491},
      {"smiles": "N#CCn1cc(-c2cnc3c(Nc4ccc(C(=O)N5CCN(C(=O)N[C@H]6CCNC6)CC5)c(Cl)c4)nccn23)c(C(F)(F)F)n1", "note": "[Example 297, 4-[2-chloro-4-[[3-[1-(cyanomethyl)-3-(trifluoromethyl)pyrazol-4-yl]imidazo[1,2-a]pyrazin-8-yl]amino]benzoyl]-N-[(3S)-pyrrolidin-3-yl]piperazine-1-carboxamide formate]", "IC90": 0.31},
      {"smiles": "CCc1cc(Nc2nccn3c(-c4cn(CCF)nc4C(F)(F)F)cnc23)ccc1C(=O)NCCOCCN", "note": "[Example 301, N-[2-(2-aminoethoxy)ethyl]-2-ethyl-4-[[3-[1-(2-fluoroethyl)-3-(trifluoromethyl)pyrazol-4-yl]imidazo[1,2-a]pyrazin-8-yl]amino]benzamide formate]", "IC90": 0.164},
      {"smiles": "CCc1cc(Nc2nccn3c(-c4cn(CC(F)F)nc4C(F)(F)F)cnc23)ccc1C(=O)NCCOCCN", "note": "[Example 302, N-[2-(2-aminoethoxy)ethyl]-4-[[3-[1-(2,2-difluoroethyl)-3-(trifluoromethyl)pyrazol-4-yl]imidazo[1,2-a]pyrazin-8-yl]amino]-2-ethylbenzamide formate]", "IC90": 0.17},
      {"smiles": "CCc1cc(Nc2nccn3c(-c4cn(CC5CCC5)nc4C(F)(F)F)cnc23)ccc1C(=O)NCCOCCN", "note": "[Example 303, N-[2-(2-aminoethoxy)ethyl]-4-[[3-[1-(cyclobutylmethyl)-3-(trifluoromethyl)pyrazol-4-yl]imidazo[1,2-a]pyrazin-8-yl]amino]-2-ethylbenzamide formate]", "IC90": 0.201},
      {"smiles": "CCc1cc(Nc2nccn3c(-c4cn(CC5CC(F)(F)C5)nc4C(F)(F)F)cnc23)ccc1C(=O)NCCOCCN", "note": "[Example 304, N-[2-(2-aminoethoxy)ethyl]-4-[[3-[1-[(3,3-difluorocyclobutyl)methyl]-3-(trifluoromethyl)pyrazol-4-yl]imidazo[1,2-a]pyrazin-8-yl]amino]-2-ethylbenzamide formate]", "IC90": 0.253},
      {"smiles": "CCc1cc(Nc2nccn3c(-c4cn(CCO)nc4C(F)(F)F)cnc23)ccc1C(=O)NCCOCCN", "note": "[Example 305, N-[2-(2-aminoethoxy)ethyl]-2-ethyl-4-[[3-[1-(2-hydroxyethyl)-3-(trifluoromethyl)pyrazol-4-yl]imidazo[1,2-a]pyrazin-8-yl]amino]benzamide formate]", "IC90": 0.406},
      {"smiles": "CCc1cc(Nc2nccn3c(-c4cn(CC(C)(C)CO)nc4C(F)(F)F)cnc23)ccc1C(=O)NCCOCCN", "note": "[Example 306, N-[2-(2-aminoethoxy)ethyl]-2-ethyl-4-[[3-[1-(3-hydroxy-2,2-dimethylpropyl)-3-(trifluoromethyl)pyrazol-4-yl]imidazo[1,2-a]pyrazin-8-yl]amino]benzamide formate]", "IC90": 0.483}
    ]},
    {"system": "Acinetobacter baumannii ATCC17961", "experiment": "Antimicrobial susceptibility testing: 90% growth inhibitory concentration (IC90) determination in Iso-Sensitest broth, OD600 growth", "format": "cell-based", "settings": "Acinetobacter baumannii, ATCC17961, 16 h, strain ATCC 17961, OD600 growth over 16 h, read-out: A. baumannii ATCC 17961 IC90", "how_it_was_run": "as §1", "units": {"IC90": "µM"}, "values": [
      {"smiles": "CCc1cc(Nc2nccn3c(-c4cn(CCNC)nc4C(F)(F)F)cnc23)ccc1C(=O)NC", "note": "[Example 298, 2-ethyl-N-methyl-4-[[3-[1-[2-(methylamino)ethyl]-3-(trifluoromethyl)pyrazol-4-yl]imidazo[1,2-a]pyrazin-8-yl]amino]benzamide]", "IC90": 1.32},
      {"smiles": "NCCC(=O)NCCNC(=O)c1ccc(Nc2nccn3c(-c4c[nH]nc4C(F)(F)F)cnc23)cc1Cl", "note": "[Example 299, N-[2-(3-aminopropanoylamino)ethyl]-2-chloro-4-[[3-[3-(trifluoromethyl)-1H-pyrazol-4-yl]imidazo[1,2-a]pyrazin-8-yl]amino]benzamide]", "IC90": 0.699},
      {"smiles": "NCCCC(=O)NCCNC(=O)c1ccc(Nc2nccn3c(-c4c[nH]nc4C(F)(F)F)cnc23)cc1Cl", "note": "[Example 300, N-[2-(4-aminobutanoylamino)ethyl]-2-chloro-4-[[3-[3-(trifluoromethyl)-1H-pyrazol-4-yl]imidazo[1,2-a]pyrazin-8-yl]amino]benzamide]", "IC90": 0.905}
    ]}
  ]
}
